Activity calls are given as the source filed them.
Tests used:
[1] = target: Lysosomal acid glucosylceramidase (Homo sapiens, UniProt P04062); assay: Dose response cell-based high throughput screening assay to identify enhancers of beta-glucosidase activity. [Related pubchem assays: 784 ]; type: functional
[2] = luciferase reporter signal reduction – luminescence, H4-C neuroglioblastoma cells, dose response (AID 2458); type: functional, cell-based;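 further: H4 neuroglioblastoma cells stably carrying a luciferase reporter gene fusion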
cells = type: functional, cell-based
[3] = Luminescence Cell-Based Dose Response HTS to Identify Inhibitors of 5'UTR Stem-Loop Driven Prion Protein mRNA Translation in H4 Neuroglioblastoma Cells. [Related pubchem assays: 1827 (Project Summary), 1813 (Primary HTS)]; type: functional
[4] = alpha-synuclein stem-loop luciferase translation blockers – H4 neuroglioma cells, luminescence, confirmation (AID 1988); type: functional, cell-based
[5] = Luminescence-based dose response cell-based high throughput screening assay for cytotoxic compounds using the IEC-6 intestinal epithelial cell line. [Related pubchem assays: 1858 (Summary AID.), 1825 (Counterscreen.), 1907 (Confirmation screen.)]; type: functional
[6] = alpha-synuclein stem-loop translation blockers – luminescence, H4 neuroglioblastoma cells, dose confirmation, confirmation (AID 2454); type: functional, cell-based;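 further: H4 neuroglioblastoma cells carrying an alpha-synuclein 5'UTR luciferase reporter; potency for inhibition of the luciferase signal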
[7] = target: Scavenger receptor class B member 1 (Mus musculus, UniProt Q61009); assay: mouse SR-BI DiI-HDL uptake blockers – ldlA[mSR-BI] cells, fluorescence, cherry pick, dose response (AID 493194); type: functional, cell-based;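 further: cellular uptake of fluorescent DiI-labeled HDL measured as cell fluorescence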
[8] = HEK-293T viability loss after treatment – luminescence, T-cell screen hits, cytotoxicity control for TCR NF-kB inhibitor project, dose response (AID 489026); type: functional, cell-based;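 further: cells exposed to compound about 14 hours before the viability readout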
[9] = reduction of Shn3 3'UTR-driven luciferase in osteoblasts – cell-based, Clone20 osteoblasts, firefly luciferase, cherry-picked, dose response (AID 624132); type: functional;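 further: firefly luciferase luminescence from reporter carrying the Shn3 3'UTR in osteoblasts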
[10] = non-specific 3'UTR reporter inhibition in Clone20-Shn3RL – cell-based, Renilla luciferase, cherry-picked, counter-screen for Shn3 inhibitor project, dose response (AID 624133); type: functional
[11] = target: T1, Neuropeptides B/W receptor type 1 (Homo sapiens, UniProt P48145); assay: Fluorescence-based dose response cell-based high throughput screening assay to identify antagonists of the G-protein coupled receptor 7 (GPR7). [Related pubchem assays: 1952 (Screening assay (GPR7 antagonists).), 1880 (Summary AID.)]; type: functional
T1 sequence (P48145 whole entry): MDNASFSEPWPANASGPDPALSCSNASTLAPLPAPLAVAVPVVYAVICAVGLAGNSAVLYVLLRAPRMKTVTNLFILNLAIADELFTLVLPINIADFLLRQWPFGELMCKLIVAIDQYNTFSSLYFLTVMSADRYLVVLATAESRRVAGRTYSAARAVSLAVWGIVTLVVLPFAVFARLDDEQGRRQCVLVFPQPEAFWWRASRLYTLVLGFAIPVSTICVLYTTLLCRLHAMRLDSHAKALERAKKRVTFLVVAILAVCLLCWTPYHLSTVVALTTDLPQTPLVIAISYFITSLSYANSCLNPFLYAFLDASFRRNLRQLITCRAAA

[12] = target: Melanin-concentrating hormone receptor 1 (Homo sapiens, UniProt Q99705); assay: Fluorescence-based counterscreen for antagonists of the G-protein coupled receptor 7 (GPR7): cell-based high throughput dose response assay to identify antagonists of the melanin-concentrating hormone receptor 1 (MCHR1).; type: functional
[13] = target: Photoreceptor-specific nuclear receptor (Homo sapiens, UniProt Q9Y5X4); type: functional;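 further: potency for compounds that break the NR2E3 corepressor complex and count as activators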
[14] = target: Peroxisome proliferator-activated receptor gamma/Nuclear receptor corepressor 2 (Homo sapiens, UniProt P37231+Q9Y618); type: functional
[15] = target: Dual specificity protein phosphatase 3 (Homo sapiens, UniProt P51452); assay: inhibition constants for human DUSP3 – biochemical, colorimetric, SAR follow-up (AID 2004)
Protein Rev = Protein Rev (Human immunodeficiency virus type 1 group M subtype B (isolate WMJ22)(HIV-1), UniProt P05866); assay: inhibitors of Rev protein–RRE RNA complex – biochemical, protein-RNA interaction, dose response (AID 842); design: species or system Human immunodeficiency virus 1
Cytochrome P450 2C9 = Cytochrome P450 2C9 (Homo sapiens, UniProt P11712); conditions: Potency
[16] = test system: Streptococcus sp. 'group A'; assay: Streptococcus pyogenes SK(-)GAS viability under kanamycin – luminescence, BacTiterGlo, confirmation, counter-screen for streptokinase expression inhibitor project, dose response (AID 1900); type: functional, organism-based
Streptococcus [17] = assay: Luminescence Microorganism-Based Dose Response Follow up to Identify Compounds Cytotoxic to Streptococcus. [Related pubchem assays: 1677 (Project Summary), 1915, 1914, 1902 (Retest at Dose), 1900 (Counter Screen), 1662 (Primary HTS)]; type: functional, organism-based
Streptokinase A = target: T2, Streptokinase A (Streptococcus pyogenes serotype M1, UniProt P10520); assay: viability-normalized secreted streptokinase activity reduction – plasminogen activation absorbance, OD405, dose response (AID 1914); type: functional, Streptococcus pyogenes M1 GAS;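 further: secreted streptokinase activity via plasminogen activation per viability signal from cell pellet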
T2 sequence (P10520 whole entry): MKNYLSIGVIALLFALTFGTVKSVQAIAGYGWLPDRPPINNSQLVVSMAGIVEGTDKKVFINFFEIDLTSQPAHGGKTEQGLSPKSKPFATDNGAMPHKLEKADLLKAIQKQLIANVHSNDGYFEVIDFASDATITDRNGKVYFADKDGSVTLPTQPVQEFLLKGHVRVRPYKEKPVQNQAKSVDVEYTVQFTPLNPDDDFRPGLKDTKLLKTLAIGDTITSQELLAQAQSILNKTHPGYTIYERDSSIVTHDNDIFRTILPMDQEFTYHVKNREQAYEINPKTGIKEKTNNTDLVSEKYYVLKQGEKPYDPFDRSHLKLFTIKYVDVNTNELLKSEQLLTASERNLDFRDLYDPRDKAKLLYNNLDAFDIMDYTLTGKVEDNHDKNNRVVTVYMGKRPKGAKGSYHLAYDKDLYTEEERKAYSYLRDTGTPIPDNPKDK

Streptococcus [18] = assay: GAS UMAA2166 growth inhibition – luminescence, BacTiterGlo, counter-screen for streptokinase expression inhibitor project, dose response (AID 1915); type: functional, organism-based;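 further: potency for reduction of bacterial viability or growth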
HeLa = assay: viability loss in HeLa cells – cell-based, 24 h, cherry-picked samples, cytotoxicity control, dose response (AID 504726); type: functional; conditions: Homo sapiens
ORF 73 = target: T3, ORF 73 (Human herpesvirus 8, UniProt O40947); assay: KSHV LANA DNA-binding disruption – biochemical, fluorescence polarization, cherry-picked samples, dose response (AID 504725); design: species or system Human gammaherpesvirus 8;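 further: fluorescence polarization of a labeled DNA duplex reporting LANA DNA binding; potency is for inhibitors that block LANA binding to the DNA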
T3 sequence (O40947 whole entry): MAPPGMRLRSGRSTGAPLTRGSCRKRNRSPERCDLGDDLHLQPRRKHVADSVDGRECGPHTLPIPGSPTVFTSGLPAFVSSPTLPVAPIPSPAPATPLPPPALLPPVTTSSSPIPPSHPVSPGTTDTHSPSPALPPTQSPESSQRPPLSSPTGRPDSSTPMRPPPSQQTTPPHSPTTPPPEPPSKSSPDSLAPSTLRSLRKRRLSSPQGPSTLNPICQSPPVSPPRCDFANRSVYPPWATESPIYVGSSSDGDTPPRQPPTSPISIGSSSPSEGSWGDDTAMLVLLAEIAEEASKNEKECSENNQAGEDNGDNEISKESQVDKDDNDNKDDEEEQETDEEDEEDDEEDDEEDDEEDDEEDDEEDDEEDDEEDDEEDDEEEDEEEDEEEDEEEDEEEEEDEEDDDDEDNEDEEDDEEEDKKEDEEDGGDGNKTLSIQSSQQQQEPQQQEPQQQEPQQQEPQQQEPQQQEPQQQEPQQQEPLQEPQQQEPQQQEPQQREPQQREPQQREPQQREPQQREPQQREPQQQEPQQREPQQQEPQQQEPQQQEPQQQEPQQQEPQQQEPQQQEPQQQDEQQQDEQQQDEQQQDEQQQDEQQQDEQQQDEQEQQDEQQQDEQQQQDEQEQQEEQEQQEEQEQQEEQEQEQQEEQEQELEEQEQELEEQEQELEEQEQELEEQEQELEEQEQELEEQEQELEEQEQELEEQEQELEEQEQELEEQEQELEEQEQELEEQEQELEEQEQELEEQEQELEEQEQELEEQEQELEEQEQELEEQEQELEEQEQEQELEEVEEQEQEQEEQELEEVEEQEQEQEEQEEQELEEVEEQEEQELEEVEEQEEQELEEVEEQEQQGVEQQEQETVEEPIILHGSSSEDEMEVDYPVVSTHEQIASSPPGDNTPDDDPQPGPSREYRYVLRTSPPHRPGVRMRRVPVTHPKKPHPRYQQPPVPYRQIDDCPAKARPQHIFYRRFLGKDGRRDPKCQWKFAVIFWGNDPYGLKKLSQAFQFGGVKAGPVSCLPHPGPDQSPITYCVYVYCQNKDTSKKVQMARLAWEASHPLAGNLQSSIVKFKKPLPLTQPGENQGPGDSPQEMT

CHO = CHO cell viability loss, potency – luminescence, cytotoxicity control for TLR9-MyD88 binding inhibitor project, dose response (AID 588339); type: functional, cell-based, hamster; conditions: Cricetulus griseus;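 further: CHO cells stably coexpressing TLR9 and MyD88 fusions from primary screen; compound exposure lasted 48 hours before viability readout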
Caspase-6 = target: T4, Caspase-6 (Homo sapiens, UniProt P55212); assay: inhibition of CASP6 peptide cleavage – biochemical, VEID-R110 fluorescence, cherry-pick, dose response (AID 720632)
T4 sequence (P55212 whole entry): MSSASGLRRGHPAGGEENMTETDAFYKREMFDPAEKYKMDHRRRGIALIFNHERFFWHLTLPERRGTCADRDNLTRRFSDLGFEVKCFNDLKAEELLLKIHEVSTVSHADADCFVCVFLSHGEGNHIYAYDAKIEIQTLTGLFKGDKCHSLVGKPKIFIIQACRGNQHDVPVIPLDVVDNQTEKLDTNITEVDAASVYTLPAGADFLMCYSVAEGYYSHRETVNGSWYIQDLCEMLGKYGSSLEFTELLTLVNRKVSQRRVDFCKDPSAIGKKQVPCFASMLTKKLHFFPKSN

[19] = target: T5, G-protein coupled receptor 35 (Homo sapiens, UniProt Q9HC97); assay: SAR analysis of Antagonists of the GPR35 Receptor using an Image-Based Assay - Set 5. [Related pubchem assays (depositor defined):AID2058, AID2079]; type: functional
[20] = target: T5, G-protein coupled receptor 35; assay: SAR Analysis for the identification of Selective Antagonists of ERK1/2 Activity in GPR35-Overexpressing U2OS Cells - Set 2. [Related pubchem assays (depositor defined):AID2058, AID2079]; type: functional, cell-based
[21] = target: G-protein coupled receptor 55 (Homo sapiens, UniProt Q9Y2T6); assay: SAR Analysis of Selective Antagonists of GPR55 using an Image-Based Assay - Set 3. [Related pubchem assays (depositor defined):AID2058, AID2079]; type: functional
Chain of G-protein coupled receptor 55 (Q9Y2T6 whole entry): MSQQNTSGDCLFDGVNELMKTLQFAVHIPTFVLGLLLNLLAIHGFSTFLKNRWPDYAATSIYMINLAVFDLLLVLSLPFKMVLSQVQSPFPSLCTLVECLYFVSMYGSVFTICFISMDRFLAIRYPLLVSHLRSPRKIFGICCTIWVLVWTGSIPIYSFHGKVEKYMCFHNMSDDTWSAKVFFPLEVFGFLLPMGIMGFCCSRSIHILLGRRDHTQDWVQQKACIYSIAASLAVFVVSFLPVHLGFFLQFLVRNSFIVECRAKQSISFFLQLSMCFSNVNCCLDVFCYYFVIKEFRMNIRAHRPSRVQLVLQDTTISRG

T5 sequence (Q9HC97 whole entry): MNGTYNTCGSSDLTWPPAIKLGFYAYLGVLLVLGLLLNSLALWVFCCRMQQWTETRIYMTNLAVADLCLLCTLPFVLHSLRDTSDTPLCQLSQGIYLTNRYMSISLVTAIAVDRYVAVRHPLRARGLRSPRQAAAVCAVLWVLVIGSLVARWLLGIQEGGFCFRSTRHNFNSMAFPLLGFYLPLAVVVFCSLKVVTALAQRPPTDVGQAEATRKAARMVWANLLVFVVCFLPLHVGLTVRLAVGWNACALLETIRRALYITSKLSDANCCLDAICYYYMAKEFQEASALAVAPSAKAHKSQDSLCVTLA
Chain of Peroxisome proliferator-activated receptor gamma/Nuclear receptor corepressor 2 (P37231 whole entry): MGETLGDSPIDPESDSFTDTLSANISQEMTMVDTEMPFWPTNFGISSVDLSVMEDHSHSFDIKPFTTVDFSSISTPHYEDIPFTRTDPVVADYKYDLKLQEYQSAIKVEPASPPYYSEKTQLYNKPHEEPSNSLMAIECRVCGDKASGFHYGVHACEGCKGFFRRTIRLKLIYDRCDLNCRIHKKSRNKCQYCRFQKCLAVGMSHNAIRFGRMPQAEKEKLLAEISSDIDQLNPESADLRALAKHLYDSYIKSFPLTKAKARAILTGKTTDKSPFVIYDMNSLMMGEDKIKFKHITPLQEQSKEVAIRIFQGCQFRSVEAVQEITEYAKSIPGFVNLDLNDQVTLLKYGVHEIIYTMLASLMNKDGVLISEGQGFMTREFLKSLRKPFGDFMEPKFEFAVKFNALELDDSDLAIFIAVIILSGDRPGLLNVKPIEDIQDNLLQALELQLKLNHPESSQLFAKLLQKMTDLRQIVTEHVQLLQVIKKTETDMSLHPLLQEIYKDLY
Chain of Peroxisome proliferator-activated receptor gamma/Nuclear receptor corepressor 2 (Q9Y618 whole entry): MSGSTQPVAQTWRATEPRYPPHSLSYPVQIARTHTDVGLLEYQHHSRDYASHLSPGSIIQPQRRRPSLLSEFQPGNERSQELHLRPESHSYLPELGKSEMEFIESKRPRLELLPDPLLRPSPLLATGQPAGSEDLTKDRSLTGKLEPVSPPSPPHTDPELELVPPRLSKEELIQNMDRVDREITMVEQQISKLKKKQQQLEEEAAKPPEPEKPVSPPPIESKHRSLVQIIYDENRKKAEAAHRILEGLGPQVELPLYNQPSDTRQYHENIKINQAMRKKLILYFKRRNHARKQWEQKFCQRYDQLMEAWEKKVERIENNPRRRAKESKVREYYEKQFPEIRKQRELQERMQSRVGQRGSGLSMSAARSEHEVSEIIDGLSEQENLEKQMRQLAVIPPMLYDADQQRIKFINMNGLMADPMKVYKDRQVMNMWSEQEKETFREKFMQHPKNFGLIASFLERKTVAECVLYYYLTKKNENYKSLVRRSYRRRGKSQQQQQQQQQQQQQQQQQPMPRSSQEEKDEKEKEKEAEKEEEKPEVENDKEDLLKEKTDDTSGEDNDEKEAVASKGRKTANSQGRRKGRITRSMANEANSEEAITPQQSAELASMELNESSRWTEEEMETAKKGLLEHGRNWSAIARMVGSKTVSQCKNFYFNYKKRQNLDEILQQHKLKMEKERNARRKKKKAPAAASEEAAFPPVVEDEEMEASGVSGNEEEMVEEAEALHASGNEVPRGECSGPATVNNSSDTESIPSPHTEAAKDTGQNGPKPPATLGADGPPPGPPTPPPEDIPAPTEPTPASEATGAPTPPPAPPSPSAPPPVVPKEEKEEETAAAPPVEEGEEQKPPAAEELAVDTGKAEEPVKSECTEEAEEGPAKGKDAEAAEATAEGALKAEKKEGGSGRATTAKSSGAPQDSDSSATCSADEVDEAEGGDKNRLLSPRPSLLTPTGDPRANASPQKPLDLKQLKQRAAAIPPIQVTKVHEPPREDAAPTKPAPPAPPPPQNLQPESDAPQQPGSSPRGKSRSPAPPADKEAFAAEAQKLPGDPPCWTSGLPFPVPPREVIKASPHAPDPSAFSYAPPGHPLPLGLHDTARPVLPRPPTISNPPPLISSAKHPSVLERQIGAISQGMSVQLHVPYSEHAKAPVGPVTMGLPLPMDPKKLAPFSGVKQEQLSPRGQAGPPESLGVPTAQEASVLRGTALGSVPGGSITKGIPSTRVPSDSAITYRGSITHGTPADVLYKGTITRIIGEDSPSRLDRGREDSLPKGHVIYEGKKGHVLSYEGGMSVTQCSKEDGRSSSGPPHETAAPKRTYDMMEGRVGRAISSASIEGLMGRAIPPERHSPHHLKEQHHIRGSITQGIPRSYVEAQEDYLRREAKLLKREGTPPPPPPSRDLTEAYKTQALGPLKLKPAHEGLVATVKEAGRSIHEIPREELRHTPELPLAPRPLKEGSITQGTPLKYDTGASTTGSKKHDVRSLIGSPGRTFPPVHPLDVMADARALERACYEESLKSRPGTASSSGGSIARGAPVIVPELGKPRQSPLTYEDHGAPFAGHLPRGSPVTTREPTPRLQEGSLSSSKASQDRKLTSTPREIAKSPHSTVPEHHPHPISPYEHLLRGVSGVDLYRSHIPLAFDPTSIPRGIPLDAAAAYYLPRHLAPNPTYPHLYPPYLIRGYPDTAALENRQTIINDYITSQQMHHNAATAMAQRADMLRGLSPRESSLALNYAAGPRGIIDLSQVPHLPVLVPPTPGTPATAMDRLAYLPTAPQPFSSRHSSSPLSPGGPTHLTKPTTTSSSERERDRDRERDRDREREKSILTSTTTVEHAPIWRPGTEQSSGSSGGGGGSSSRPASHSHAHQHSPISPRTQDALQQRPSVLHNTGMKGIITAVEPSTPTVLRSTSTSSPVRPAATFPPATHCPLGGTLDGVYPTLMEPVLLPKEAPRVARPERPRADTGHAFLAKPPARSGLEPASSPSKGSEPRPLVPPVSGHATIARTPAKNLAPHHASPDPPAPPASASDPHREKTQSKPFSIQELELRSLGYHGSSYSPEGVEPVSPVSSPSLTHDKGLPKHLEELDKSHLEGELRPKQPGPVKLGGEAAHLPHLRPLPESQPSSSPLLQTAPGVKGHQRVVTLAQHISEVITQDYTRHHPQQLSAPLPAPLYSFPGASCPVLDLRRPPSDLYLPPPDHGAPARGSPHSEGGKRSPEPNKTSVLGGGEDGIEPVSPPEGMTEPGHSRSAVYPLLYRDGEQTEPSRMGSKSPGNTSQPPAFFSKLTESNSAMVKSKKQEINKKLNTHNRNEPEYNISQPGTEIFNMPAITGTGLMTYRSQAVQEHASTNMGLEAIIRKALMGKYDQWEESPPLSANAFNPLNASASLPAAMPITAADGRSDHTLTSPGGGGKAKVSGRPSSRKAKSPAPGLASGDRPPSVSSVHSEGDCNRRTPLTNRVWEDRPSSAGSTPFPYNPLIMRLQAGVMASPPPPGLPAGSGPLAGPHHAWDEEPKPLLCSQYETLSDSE
Chain of Lysosomal acid glucosylceramidase (P04062 whole entry, the tested form may be a part): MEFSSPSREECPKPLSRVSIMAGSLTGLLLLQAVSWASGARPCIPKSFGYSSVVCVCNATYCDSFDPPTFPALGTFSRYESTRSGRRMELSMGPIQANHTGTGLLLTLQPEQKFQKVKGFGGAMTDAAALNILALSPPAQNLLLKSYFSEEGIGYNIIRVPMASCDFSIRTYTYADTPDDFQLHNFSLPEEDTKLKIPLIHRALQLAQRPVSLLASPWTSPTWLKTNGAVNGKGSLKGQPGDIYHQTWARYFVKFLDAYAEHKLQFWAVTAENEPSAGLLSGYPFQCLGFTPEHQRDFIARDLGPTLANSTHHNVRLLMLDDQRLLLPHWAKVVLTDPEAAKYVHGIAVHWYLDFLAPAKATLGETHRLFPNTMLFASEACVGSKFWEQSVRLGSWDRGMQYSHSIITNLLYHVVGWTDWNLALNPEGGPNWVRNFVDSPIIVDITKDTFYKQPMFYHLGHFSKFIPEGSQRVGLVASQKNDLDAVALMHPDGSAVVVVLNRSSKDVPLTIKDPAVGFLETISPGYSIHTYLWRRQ
Chain of Melanin-concentrating hormone receptor 1 (Q99705 whole entry): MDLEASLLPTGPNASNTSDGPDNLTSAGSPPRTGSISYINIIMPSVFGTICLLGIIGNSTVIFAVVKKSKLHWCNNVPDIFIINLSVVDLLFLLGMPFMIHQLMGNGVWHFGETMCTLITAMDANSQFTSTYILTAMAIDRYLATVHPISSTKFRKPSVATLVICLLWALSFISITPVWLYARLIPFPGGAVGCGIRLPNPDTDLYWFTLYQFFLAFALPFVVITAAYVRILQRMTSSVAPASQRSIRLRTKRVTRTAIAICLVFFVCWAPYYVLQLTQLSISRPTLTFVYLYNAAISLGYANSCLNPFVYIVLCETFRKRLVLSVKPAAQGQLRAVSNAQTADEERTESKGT
Chain of Scavenger receptor class B member 1 (Q61009 whole entry): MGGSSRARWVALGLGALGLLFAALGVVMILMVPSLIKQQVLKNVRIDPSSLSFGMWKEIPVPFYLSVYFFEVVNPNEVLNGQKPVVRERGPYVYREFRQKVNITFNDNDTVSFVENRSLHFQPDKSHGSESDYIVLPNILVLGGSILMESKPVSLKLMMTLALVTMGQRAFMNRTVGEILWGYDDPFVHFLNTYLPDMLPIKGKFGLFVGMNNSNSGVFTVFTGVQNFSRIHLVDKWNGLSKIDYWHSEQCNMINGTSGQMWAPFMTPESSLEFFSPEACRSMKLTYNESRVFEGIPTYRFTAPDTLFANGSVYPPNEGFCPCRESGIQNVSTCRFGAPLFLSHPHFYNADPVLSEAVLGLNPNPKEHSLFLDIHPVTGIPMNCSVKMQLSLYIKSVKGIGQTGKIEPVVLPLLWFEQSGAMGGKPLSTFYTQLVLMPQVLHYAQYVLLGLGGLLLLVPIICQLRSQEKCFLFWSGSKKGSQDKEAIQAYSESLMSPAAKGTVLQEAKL

## COc1ccc(S(=O)(=O)NCC(=O)N(CC(=O)NCC2CCCO2)c2ccccc2C)cc1 (centres undefined)
[1]
  EC50: > 50 µM (not active)

## CCCCCOC(=O)c1[nH]c2c(c1C)C(=O)CC(c1ccco1)C2 (centres undefined)
[2]
  EC50: 0.198 µM (active)
cells
  EC50: 0.179 µM (active)
[3]
  EC50: 9.81 µM (active)
[4]
  EC50: < 0.1 µM (active)
[5]
  IC50: 0.101 µM (active)
[6]
  EC50: 0.133 µM (active)
[7]
  AC50: 33.3 µM (active)
[8]
  IC50: > 80 µM (inactive)
[9]
  AC50: 1.49 µM (active)
[10]
  AC50: 3.96 µM (active)

## Cc1ccccc1CN1C(=O)c2ccccc2Sc2ccc(C(=O)NCCCN3CCOCC3)cc21
[11]
  IC50: 8.23 µM (active)
[12]
  IC50: 12.1 µM (not active)

## CCOc1ncccc1C(=O)Nc1ccc(C(=O)Nc2ccc(OC)cc2)cc1
[13]
  IC50: > 39.8 µM (not active)
[14]
  IC50: 3.53 µM (active)

## CN1C(=O)C(=Cc2ccc(N3CCCC3)c([N+](=O)[O-])c2)C(=O)N(C)C1=O
[15]
  Ki: 24.5 µM (inactive)

## CNCCCOc1ccc(C(C)(C)c2ccccc2)cc1
Protein Rev
  IC50: > 79.4 µM (not active)

## CC(C)C[C@@H](CC(=O)N[C@H](CC(=O)N[C@@H]1CCNC[C@H]1C(=O)N[C@H](CC(=O)N[C@@H](CCC(=O)O)CC(=O)O)CC(C)C)C(C)C)NC(=O)[C@@H]1CNCC[C@H]1N
Cytochrome P450 2C9
  AC50: 39.8 µM (inconclusive)

## Cc1ccc(SCC(=O)N2c3ccccc3Sc3ccccc32)cc1
[16]
  EC50: > 150 µM (not active)
Streptococcus [17]
  EC50: > 500 µM (not active)
Streptokinase A
  EC50: 10.9 µM (active)
Streptococcus [18]
  EC50: > 150 µM (not active)

## Cc1ccc(C(=O)O)cc1N1C(=O)c2cccc3c([N+](=O)[O-])ccc(c23)C1=O
HeLa
  AC50: 67.1 µM (active)
ORF 73
  AC50: 35 µM (active)
CHO
  IC50: 22.4 µM (inactive)
Caspase-6
  AC50: 10.3 µM (active)

## COC(=O)c1cnn(-c2ccc(F)cc2F)c1/C=N/NC(=S)Nc1ccc(Cl)cc1
[19]
  IC50: 0.171 µM (active)
[20]
  IC50: 1.69 µM (active)
[21]
  IC50: > 32 µM (inactive)

— ChEMBL document CHEMBL1201862, “PubChem BioAssay data set” (2004)
